pIC50: −log10 of the molar value.
Target: T1, TGF-β R1 ALK5 (Homo sapiens, UniProt P36897)
T1 construct: purchased Invitrogen PV5837
T1 sequence (P36897 34-503): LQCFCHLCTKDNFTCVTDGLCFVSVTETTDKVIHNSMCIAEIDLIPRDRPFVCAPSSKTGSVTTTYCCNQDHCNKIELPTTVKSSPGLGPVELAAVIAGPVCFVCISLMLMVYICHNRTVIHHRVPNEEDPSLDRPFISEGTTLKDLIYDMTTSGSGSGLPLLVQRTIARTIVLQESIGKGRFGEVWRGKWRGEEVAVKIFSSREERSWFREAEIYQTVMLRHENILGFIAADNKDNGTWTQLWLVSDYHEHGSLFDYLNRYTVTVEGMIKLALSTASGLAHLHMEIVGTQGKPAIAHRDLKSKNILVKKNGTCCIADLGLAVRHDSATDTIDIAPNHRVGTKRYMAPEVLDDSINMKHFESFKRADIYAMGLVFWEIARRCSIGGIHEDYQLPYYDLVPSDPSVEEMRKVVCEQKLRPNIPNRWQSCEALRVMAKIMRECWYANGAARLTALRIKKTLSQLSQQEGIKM
Experiment: In vitro inhibition of ALK5 (LanthaScreen activity assay, TR-FRET)
Assay type: biochemical
Protocol: Test compounds were screened for TGF-β R1 ALK5 inhibition by use of a LanthaScreen™ activity assay (PV5837 Invitrogen, Invitrogen Corp. Madison, Wis.).
In brief, the assay procedure was as follows:
Solutions of test compounds were prepared in DMSO and diluted two-fold serially.
Assays were incubated for 90 minutes at room temperature and then quenched by the addition of 60 mM EDTA and 8 nM Terbium labeled anti-pSMAD3 Antibody (M4337 from Invitrogen) giving a final concentration of 15 mM EDTA and 2 nM Terbium labeled anti-pSMAD3 Antibody. Phosphorylated peptide product was quantified by measuring an increase in TR-FRET on a BMG LABTECH PHERA star plus. Response is defined as the ratio of Channel A/Channel B. The response of a blank (uninhibited) using vehicle alone is also determined. Enzyme activity was defined as the response of uninhibited enzyme activity minus the response of assays containing no enzyme. The percent inhibition of ALK5 at a given compound concentration is defined as: 100%×[1−(response compound/response blank)]
where response compound is defined as the enzyme activity in the presence of test compound and response blank is defined as the uninhibited enzyme activity. The pIC50 value (negative log of the molar concentration of the compound that produces 50% inhibition) of a test compound is calculated by non-linear least squares curve fitting of the equation: Percent Inhibition=100%/(1+(10−pIC50/10 log [I])).
Where inhibition was measured in multiple experiments the value in Table 1 is an average. N.T. means not tested.

Structure (SMILES): Cc1ccc(F)c(-c2cc(Nc3ccnc4cn(CC(N)=O)nc34)ccn2)n1 [Example 84, 2-(7-(3′-fluoro-6′-methyl-2,2′-bipyridin-4-ylamino)-2H-pyrazolo[4,3-b]pyridin-2-yl)acetamide]
- pIC50: 7.50

Structure (SMILES): Fc1ccc(Cl)cc1-c1cc(Nc2ccnc3cn(CC4CCOCC4)nc23)ccn1 [Example 23, N-(2-(5-chloro-2-fluorophenyl)pyridin-4-yl)-2-((tetrahydro-2H-pyran-4-yl)methyl)-2H-pyrazolo[4,3-b]pyridin-7-amine]
- pIC50: 6.50

Structure (SMILES): Cc1ccc(F)c(-c2cc(Nc3ccnc4cnn(C5CCN(S(C)(=O)=O)CC5)c34)ccn2)c1 [Example 78, N-(2-(2-fluoro-5-methylphenyl)pyridin-4-yl)-1-(1-(methylsulfonyl)piperidin-4-yl)-1H-pyrazolo[4,3-b]pyridin-7-amine]
- pIC50: 6.20

Structure (SMILES): NC(=O)n1ncc2nccc(Nc3ccnc(-c4cc(Cl)ccc4F)c3)c21 [Example 30, 7-(2-(5-chloro-2-fluorophenyl)pyridin-4-ylamino)-1H-pyrazolo[4,3-b]pyridine-1-carboxamide]
- pIC50: 7.30

Structure (SMILES): CN(C)C(=O)Cn1ncc2nccc(Nc3ccnc(-c4cc(Cl)ccc4F)c3)c21 [Example 38, 2-(7-(2-(5-chloro-2-fluorophenyl)pyridin-4-ylamino)-1H-pyrazolo[4,3-b]pyridin-1-yl)-N,N-dimethylacetamide]
- pIC50: 6.60

Structure (SMILES): Fc1ccc(Cl)cc1-c1cc(Nc2ccnc3cn(CC4CCCO4)nc23)ccn1 (stereo not shown) [Example 25, N-(2-(5-chloro-2-fluorophenyl)pyridin-4-yl)-2-((tetrahydrofuran-2-yl)methyl)-2H-pyrazolo[4,3-b]pyridin-7-amine]
- pIC50: 5.60

Structure (SMILES): CCS(=O)(=O)n1cc2nccc(Nc3cc(-c4cc(Cl)ccc4F)ncc3C)c2n1 [Example 56, N-(2-(5-chloro-2-fluorophenyl)-5-methylpyridin-4-yl)-2-(ethylsulfonyl)-2H-pyrazolo[4,3-b]pyridin-7-amine]
- pIC50: 7.90

Structure (SMILES): CNC(=O)n1ncc2nccc(Nc3ccnc(-c4nc(C)ccc4F)c3)c21 [Example 74, 7-(3′-fluoro-6′-methyl-2,2′-bipyridin-4-ylamino)-N-methyl-1H-pyrazolo[4,3-b]pyridine-1-carboxamide]
- pIC50: 7.40

Structure (SMILES): O=C(Cn1ncc2nccc(Nc3ccnc(-c4cc(Cl)ccc4F)c3)c21)N1CCOCC1 [Example 42, 2-(7-(2-(5-chloro-2-fluorophenyl)pyridin-4-ylamino)-1H-pyrazolo[4,3-b]pyridin-1-yl)-1-morpholinoethanone]
- pIC50: 6.50

Structure (SMILES): CC(C(N)=O)n1cc2nccc(Nc3ccnc(-c4cc(Cl)ccc4F)c3)c2n1 (stereo not shown) [Example 45, 2-(7-(2-(5-chloro-2-fluorophenyl)pyridin-4-ylamino)-2H-pyrazolo[4,3-b]pyridin-2-yl)propanamide]
- pIC50: 7.30

Structure (SMILES): Cc1ccc(F)c(-c2cc(Nc3ccnc4c[nH]nc34)ccn2)n1 [Example 64, N-(3′-fluoro-6′-methyl-2,2′-bipyridin-4-yl)-2H-pyrazolo[4,3-b]pyridin-7-amine]
- pIC50: 6.90

Structure (SMILES): Cc1ccc(F)c(-c2cc(Nc3ccnc4cn(CC(C)(C)O)nc34)c(C)cn2)n1 [Example 8, 1-(7-(3′-fluoro-5,6′-dimethyl-2,2′-bipyridin-4-ylamino)-2H-pyrazolo[4,3-b]pyridin-2-yl)-2-methylpropan-2-ol]
- pIC50: 6.60

Structure (SMILES): Cc1cc(Nc2ccnc3cn[nH]c23)cc(-c2cc(Cl)ccc2F)n1 [Example 57, N-(2-(5-chloro-2-fluorophenyl)-6-methylpyridin-4-yl)-1H-pyrazolo[4,3-b]pyridin-7-amine]
- pIC50: 7.40

Structure (SMILES): Cc1ccc(F)c(-c2cc(Nc3ccnc4cnn(CC(N)=O)c34)c(C)cn2)n1 [Example 13, 2-(7-(3′-fluoro-5,6′-dimethyl-2,2′-bipyridin-4-ylamino)-1H-pyrazolo[4,3-b]pyridin-1-yl)acetamide]
- pIC50: 8.60

Structure (SMILES): CCNC(=O)n1ncc2nccc(Nc3ccnc(-c4cc(C)ccc4F)c3)c21 [Example 80, N-ethyl-7-(2-(2-fluoro-5-methylphenyl)pyridin-4-ylamino)-1H-pyrazolo[4,3-b]pyridine-1-carboxamide]
- pIC50: 7.50

Structure (SMILES): Cc1cccc(-c2cc(Nc3ccnc4cn(CC(N)=O)nc34)c(C)cn2)n1 [Example 12, 2-(7-(5,6′-dimethyl-2,2′-bipyridin-4-ylamino)-2H-pyrazolo[4,3-b]pyridin-2-yl)acetamide]
- pIC50: 7.50

Structure (SMILES): CCNC(=O)n1ncc2nccc(Nc3ccnc(-c4cc(Cl)c(F)cc4F)c3)c21 [Example 62, 7-(2-(5-chloro-2,4-difluorophenyl)pyridin-4-ylamino)-N-ethyl-1H-pyrazolo[4,3-b]pyridine-1-carboxamide]
- pIC50: 7.90

Structure (SMILES): CCNC(=O)n1ncc2nccc(Nc3cc(C)nc(-c4cc(Cl)ccc4F)c3)c21 [Example 59, 7-(2-(5-chloro-2-fluorophenyl)-6-methylpyridin-4-ylamino)-N-ethyl-1H-pyrazolo[4,3-b]pyridine-1-carboxamide]
- pIC50: 6.50

Structure (SMILES): Cc1cnc(-c2cc(Cl)ccc2F)nc1Nc1ccnc2cn(CC(N)=O)nc12 [Example 4, 2-(7-(2-(5-chloro-2-fluorophenyl)-5-methylpyrimidin-4-ylamino)-2H-pyrazolo[4,3-b]pyridin-2-yl)acetamide]
- pIC50: 8.20

Structure (SMILES): CNC(=O)Cn1ncc2nccc(Nc3cc(-c4cc(F)ccc4F)ncc3C)c21 [Example 159, 2-(7-(2-(2,5-difluorophenyl)-5-methylpyridin-4-ylamino)-1H-pyrazolo[4,3-b]pyridin-1-yl)-N-methylacetamide]
- pIC50: 7.40

Structure (SMILES): Cc1ccc(F)c(-c2cc(Nc3ccnc4cn(CC(N)=O)nc34)c(C)cn2)n1 [Example 14, 2-(7-(3′-fluoro-5,6′-dimethyl-2,2′-bipyridin-4-ylamino)-2H-pyrazolo[4,3-b]pyridin-2-yl)acetamide]
- pIC50: 8.00

Structure (SMILES): Cc1ccc(F)c(-c2cc(Nc3ccnc4cn(CCO)nc34)ccn2)n1 [Example 72, 2-(7-(3′-fluoro-6′-methyl-2,2′-bipyridin-4-ylamino)-2H-pyrazolo[4,3-b]pyridin-2-yl)ethanol]
- pIC50: 6.80

Structure (SMILES): Fc1ccc(Cl)cc1-c1cc(Nc2ccnc3cnn(CC4CCNCC4)c23)ccn1 [Example 26, N-(2-(5-chloro-2-fluorophenyl)pyridin-4-yl)-1-(piperidin-4-ylmethyl)-1H-pyrazolo[4,3-b]pyridin-7-amine]
- pIC50: 5.60

Structure (SMILES): Cc1cnc(-c2cc(Cl)ccc2F)nc1Nc1ccnc2cnn(CC(N)=O)c12 [Example 3, 2-(7-(2-(5-chloro-2-fluorophenyl)-5-methylpyrimidin-4-ylamino)-1H-pyrazolo[4,3-b]pyridin-1-yl)acetamide]
- pIC50: 8.20

Structure (SMILES): Cc1ccc(F)c(-c2cc(Nc3ccnc4cn[nH]c34)c(C)cn2)n1 [Example 11, N-(3′-fluoro-5,6′-dimethyl-2,2′-bipyridin-4-yl)-1H-pyrazolo[4,3-b]pyridin-7-amine]
- pIC50: 8.60

Structure (SMILES): Fc1ccc(Cl)cc1-c1cc(Nc2ccnc3cnn(CC4CCOCC4)c23)ccn1 [Example 24, N-(2-(5-chloro-2-fluorophenyl)pyridin-4-yl)-1-((tetrahydro-2H-pyran-4-yl)methyl)-1H-pyrazolo[4,3-b]pyridin-7-amine]
- pIC50: 5.80

Structure (SMILES): CCS(=O)(=O)n1cc2nccc(Nc3cc(C)nc(-c4cc(Cl)ccc4F)c3)c2n1 [Example 61, N-(2-(5-chloro-2-fluorophenyl)-6-methylpyridin-4-yl)-2-(ethylsulfonyl)-2H-pyrazolo[4,3-b]pyridin-7-amine]
- pIC50: 6.60

Structure (SMILES): CNC(=O)n1ncc2nccc(Nc3ccnc(-c4cc(C)ccc4F)c3)c21 [Example 75, 7-(2-(2-fluoro-5-methylphenyl)pyridin-4-ylamino)-N-methyl-1H-pyrazolo[4,3-b]pyridine-1-carboxamide]
- pIC50: 7.60

Structure (SMILES): Cc1ccc(F)c(-c2cc(Nc3ccnc4cn(CCO)nc34)c(C)cn2)n1 [Example 9, 2-(7-(3′-fluoro-5,6′-dimethyl-2,2′-bipyridin-4-ylamino)-2H-pyrazolo[4,3-b]pyridin-2-yl)ethanol]
- pIC50: 8.10

Structure (SMILES): NC(=O)Cn1ncc2nccc(Nc3ccnc(-c4cc(Cl)ccc4F)c3)c21 [Example 44, 2-(7-(2-(5-chloro-2-fluorophenyl)pyridin-4-ylamino)-1H-pyrazolo[4,3-b]pyridin-1-yl)acetamide]
- pIC50: 7.50

Structure (SMILES): O=C1NCCN1CCn1ncc2nccc(Nc3ccnc(-c4cc(Cl)ccc4F)c3)c21 [Example 41, 1-(2-(7-(2-(5-chloro-2-fluorophenyl)pyridin-4-ylamino)-1H-pyrazolo[4,3-b]pyridin-1-yl)ethyl)imidazolidin-2-one]
- pIC50: 6.50
